The record followed here is article PMC3883289, “DER containing two consecutive GTP-binding domains plays an essential role in chloroplast ribosomal RNA processing and ribosome biogenesis in higher plants” (Journal of Experimental Botany, 2013).

The experiment concerns the target T1, NbDER (MBP:NbDER) (Nicotiana benthamiana, UniProt R4N342, S369A).
T1 construct: gene YphC; without N-terminal chloroplast transit peptide (Met-1 to Ser-60); N-terminal MBP tag kept; E. coli; precursor 651 residues; GD1, GD2 and CTD present; fusion proteins approximately 60-107 kDa
Put plainly: phosphate release, Biomol green. Type of experiment: biochemical. The following applies: 1 mM GTP, 3 uM protein, HEPES pH 8, 1 mM Mg (printed MgCl4), room temperature, 18 h.

Structures are written as SMILES.

T1 sequence (R4N342 entry or part of it S369A): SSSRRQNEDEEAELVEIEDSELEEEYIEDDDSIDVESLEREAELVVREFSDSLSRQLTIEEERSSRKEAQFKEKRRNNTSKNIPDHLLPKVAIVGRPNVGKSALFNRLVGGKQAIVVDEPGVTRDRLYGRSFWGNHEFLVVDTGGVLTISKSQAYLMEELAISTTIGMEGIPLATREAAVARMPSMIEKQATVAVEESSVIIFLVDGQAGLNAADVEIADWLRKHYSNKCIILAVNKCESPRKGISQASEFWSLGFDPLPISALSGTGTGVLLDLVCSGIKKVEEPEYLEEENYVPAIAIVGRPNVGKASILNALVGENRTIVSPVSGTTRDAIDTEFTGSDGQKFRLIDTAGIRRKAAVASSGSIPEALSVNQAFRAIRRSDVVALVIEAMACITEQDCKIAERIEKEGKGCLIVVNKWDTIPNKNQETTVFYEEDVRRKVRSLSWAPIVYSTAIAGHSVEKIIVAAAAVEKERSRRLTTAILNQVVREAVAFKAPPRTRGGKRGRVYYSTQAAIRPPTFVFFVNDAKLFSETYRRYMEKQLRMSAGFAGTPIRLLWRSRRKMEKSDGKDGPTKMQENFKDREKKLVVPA

As for `Nc1nc2c(ncn2[C@@H]2O[C@H](COP(=O)(O)OP(=O)(O)OP(=O)(O)O)[C@@H](O)[C@H]2O)c(=O)[nH]1` [GTP], the “phosphate release, Biomol green” value was “S162A or S369A mutation in NbDER (PM1 or PM2) reduced the k cat values”.
